The text below walks through data of ChEMBL document CHEMBL5725203, “Quinazolinone compounds and derivatives thereof” (2016).

Test [1] has as its target Poly [ADP-ribose] polymerase 1 (Homo sapiens, UniProt P09874). The test is described as follows: (§1) Biochemical Assay: PARP1 biochemical assay was purchased as a kit from Trevigen (cat.#4676-096-K) and used per manufacturers recommendations.PARP2 biochemical assay was purchased as a kit from BPS (cat.#80552) and used per manufacturers recommendations.
Test [2] has as its target Poly [ADP-ribose] polymerase 2 (Homo sapiens, UniProt Q9UGN5). The test is described as §1.

Sequence of Poly [ADP-ribose] polymerase 2 (Q9UGN5 whole entry): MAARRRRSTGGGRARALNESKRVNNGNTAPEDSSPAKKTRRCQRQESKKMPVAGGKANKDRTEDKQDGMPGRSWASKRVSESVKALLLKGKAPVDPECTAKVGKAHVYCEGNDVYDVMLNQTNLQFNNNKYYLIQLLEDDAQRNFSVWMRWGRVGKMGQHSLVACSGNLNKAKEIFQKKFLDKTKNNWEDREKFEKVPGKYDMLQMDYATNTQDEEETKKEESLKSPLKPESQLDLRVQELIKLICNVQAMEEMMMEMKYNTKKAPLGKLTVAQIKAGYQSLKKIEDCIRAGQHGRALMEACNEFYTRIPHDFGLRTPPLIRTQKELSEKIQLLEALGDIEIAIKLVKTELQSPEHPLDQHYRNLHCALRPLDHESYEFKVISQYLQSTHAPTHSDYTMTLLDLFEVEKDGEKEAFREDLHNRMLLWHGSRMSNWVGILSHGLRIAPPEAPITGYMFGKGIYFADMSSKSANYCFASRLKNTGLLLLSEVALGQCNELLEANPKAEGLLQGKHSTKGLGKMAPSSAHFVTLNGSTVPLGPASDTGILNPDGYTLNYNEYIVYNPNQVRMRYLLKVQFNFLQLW
Sequence of Poly [ADP-ribose] polymerase 1 (P09874 whole entry): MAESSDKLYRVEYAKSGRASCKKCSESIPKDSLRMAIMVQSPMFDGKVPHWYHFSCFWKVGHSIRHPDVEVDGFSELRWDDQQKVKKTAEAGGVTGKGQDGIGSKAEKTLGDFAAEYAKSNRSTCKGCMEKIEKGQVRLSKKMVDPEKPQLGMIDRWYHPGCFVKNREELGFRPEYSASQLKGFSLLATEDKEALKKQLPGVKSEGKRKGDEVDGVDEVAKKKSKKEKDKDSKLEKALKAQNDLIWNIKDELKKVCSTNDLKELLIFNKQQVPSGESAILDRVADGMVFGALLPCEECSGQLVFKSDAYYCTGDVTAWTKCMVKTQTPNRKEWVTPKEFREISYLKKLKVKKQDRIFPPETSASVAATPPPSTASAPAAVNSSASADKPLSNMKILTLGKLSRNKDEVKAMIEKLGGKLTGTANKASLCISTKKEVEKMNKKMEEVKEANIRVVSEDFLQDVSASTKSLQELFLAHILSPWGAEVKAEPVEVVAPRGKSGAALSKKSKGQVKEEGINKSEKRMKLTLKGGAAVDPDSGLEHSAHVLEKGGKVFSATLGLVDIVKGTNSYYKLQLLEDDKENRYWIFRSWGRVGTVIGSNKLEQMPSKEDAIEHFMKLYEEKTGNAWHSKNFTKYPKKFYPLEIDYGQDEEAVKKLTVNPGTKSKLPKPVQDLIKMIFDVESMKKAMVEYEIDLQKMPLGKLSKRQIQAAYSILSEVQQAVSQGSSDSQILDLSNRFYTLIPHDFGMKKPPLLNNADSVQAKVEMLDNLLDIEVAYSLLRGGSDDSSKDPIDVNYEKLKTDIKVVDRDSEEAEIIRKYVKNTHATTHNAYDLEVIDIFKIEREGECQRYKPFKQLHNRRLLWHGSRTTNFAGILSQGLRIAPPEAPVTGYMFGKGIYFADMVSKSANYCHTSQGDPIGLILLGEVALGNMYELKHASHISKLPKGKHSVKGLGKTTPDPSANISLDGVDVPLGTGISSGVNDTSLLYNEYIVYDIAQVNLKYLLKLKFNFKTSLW

Take `O=C(CCc1cc(=O)n2ccccc2n1)N[C@H]1CC[C@H](c2nnc(-c3ccccc3)o2)CC1`: the IC50 in test [1] is over 85 µM.

As for `O=C(CCCc1nc2ccccc2c(=O)[nH]1)N[C@H]1CC[C@H](Oc2ccccc2)C1`, the IC50 in test [1] was determined as 1.29 µM; in test [2], 0.893 µM.

As for `O=C(CCc1nc2ccccc2c(=O)[nH]1)N[C@H]1CC[C@H](n2c(=O)oc3ccccc32)CC1`, the IC50 in test [1] is 2.26 µM; in test [2], 3.08 µM.

For the molecule `O=C(CCCc1nc2ccccc2c(=O)[nH]1)N1CCC(c2noc3ccc(F)cc23)CC1`, the IC50 was 5.57 µM in test [1] and 1.44 µM in test [2].

As to `O=C1Nc2cc(Cl)ccc2C1C1CCN(C(=O)CCCc2nc3ccccc3c(=O)[nH]2)CC1` (racemic), the IC50 stood at 7.35 µM in test [1] and 0.251 µM in test [2].

Regarding `O=C(CCSc1nc2ccccc2c(=O)[nH]1)N[C@H]1CC[C@H](c2nnc(-c3ccncc3)o2)CC1`, the IC50 in test [1] was determined as 10.2 µM; in test [2], 3.02 µM.

`O=C(CCCc1nc2ccccc2c(=O)[nH]1)N1CCC(n2nnc3ccccc32)CC1`: the concentration for half-maximal inhibition (IC50) in test [1] was 2.26 µM; in test [2], 1.37 µM.

With `O=C(CCCc1nc2ccccc2c(=O)[nH]1)N1CCN(c2noc3ccccc23)CC1`, the IC50 in test [1] amounted to 0.992 µM; in test [2], 0.333 µM.

On to `COc1ccc2c(c1)[nH]c(=O)n2C1CCN(C(=O)CCCc2nc3ccccc3c(=O)[nH]2)CC1`, for which the half-maximal inhibitory concentration (IC50) in test [1] was found to be 1.78 µM; in test [2], 0.16 µM.

Usually IC50 stands for the point on the concentration scale where inhibition reaches its midpoint. A low value points to higher potency.
